In the series the test system is CCRIS mutagenicity, Ames/micronucleus/aberration tests. The series can be described thus: CCRIS mutagenicity studies.
[1] abbreviates: Test System: AMES SALMONELLA TYPHIMURIUM, Strain/Indicator: TA98, Metabolic Activation: NONE, Method: PREINCUBATION
The mark [2] stands for this setting: Test System: AMES SALMONELLA TYPHIMURIUM, Strain/Indicator: TA100, Metabolic Activation: NONE, Method: PREINCUBATION
[3] abbreviates: Test System: AMES SALMONELLA TYPHIMURIUM, Strain/Indicator: TA1535, Metabolic Activation: NONE, Method: PREINCUBATION
[4] abbreviates: Test System: AMES SALMONELLA TYPHIMURIUM, Strain/Indicator: TA1537, Metabolic Activation: NONE, Method: PREINCUBATION
Where [5] appears, read: Test System: AMES SALMONELLA TYPHIMURIUM, Strain/Indicator: TA97, Metabolic Activation: NONE, Method: PREINCUBATION
Where [6] appears, read: Test System: AMES SALMONELLA TYPHIMURIUM, Strain/Indicator: TA102, Metabolic Activation: NONE, Method: PREINCUBATION
Setting [7] is: Test System: AMES SALMONELLA TYPHIMURIUM, Strain/Indicator: TA100, Metabolic Activation: NONE, Method: STANDARD PLATE.
The mark [8] stands for this setting: Test System: AMES SALMONELLA TYPHIMURIUM, Strain/Indicator: TA1535, Metabolic Activation: NONE, Method: STANDARD PLATE.

Drawing on PubChem BioAssay AID1259407 (Chemical Carcinogenesis Research Information System (CCRIS), 2018), this text covers mutagenic call for six compounds.

The structures appear in SMILES notation. Active and inactive are the calls of the source. The rule behind the calls is not given here.

For `CCCCNCC`, the mutagenic call (Test System: AMES SALMONELLA TYPHIMURIUM, Strain/Indicator: TA98, Metabolic Activation: HAMSTER, LIVER, S-9, AROCLOR 1254 (10%), Method: PREINCUBATION) was “inactive; negative”; the mutagenic call under setting [1] was “inactive; negative”; the mutagenic call (Test System: AMES SALMONELLA TYPHIMURIUM, Strain/Indicator: TA98, Metabolic Activation: RAT, LIVER, S-9, AROCLOR 1254 (10%), Method: PREINCUBATION) was “inactive; negative”; the mutagenic call (Test System: AMES SALMONELLA TYPHIMURIUM, Strain/Indicator: TA100, Metabolic Activation: HAMSTER, LIVER, S-9, AROCLOR 1254 (10%), Method: PREINCUBATION) is “inactive; negative”; the mutagenic call under setting [2] was “inactive; negative”; the mutagenic call (Test System: AMES SALMONELLA TYPHIMURIUM, Strain/Indicator: TA100, Metabolic Activation: RAT, LIVER, S-9, AROCLOR 1254 (10%), Method: PREINCUBATION) is “inactive; negative”. Moreover, the mutagenic call was “inactive; negative” (Test System: AMES SALMONELLA TYPHIMURIUM, Strain/Indicator: TA1535, Metabolic Activation: HAMSTER, LIVER, S-9, AROCLOR 1254 (10%), Method: PREINCUBATION); “inactive; negative” under setting [3]; “inactive; negative” (Test System: AMES SALMONELLA TYPHIMURIUM, Strain/Indicator: TA1535, Metabolic Activation: RAT, LIVER, S-9, AROCLOR 1254 (10%), Method: PREINCUBATION); “inactive; negative” (Test System: AMES SALMONELLA TYPHIMURIUM, Strain/Indicator: TA1537, Metabolic Activation: HAMSTER, LIVER, S-9, AROCLOR 1254 (10%), Method: PREINCUBATION); “inactive; negative” under setting [4]; “inactive; negative” (Test System: AMES SALMONELLA TYPHIMURIUM, Strain/Indicator: TA1537, Metabolic Activation: RAT, LIVER, S-9, AROCLOR 1254 (10%), Method: PREINCUBATION).
On to `CCCCOC(=O)CCC`, for which the mutagenic call was “inactive; negative” under setting [5]; “inactive; negative” (Test System: AMES SALMONELLA TYPHIMURIUM, Strain/Indicator: TA97, Metabolic Activation: RAT, LIVER, S-9, AROCLOR 1254, Method: PREINCUBATION); “inactive; negative” under setting [6]; “inactive; negative” (Test System: AMES SALMONELLA TYPHIMURIUM, Strain/Indicator: TA102, Metabolic Activation: RAT, LIVER, S-9, AROCLOR 1254, Method: PREINCUBATION).
For the compound `C=CCCCCC1CO1` (stereo unspecified), the mutagenic call was “inactive; negative” under setting [7] and “active; positive” under setting [8].
Take `NCCNC(=O)c1ccc(Cl)cn1`: the mutagenic call under setting [5] is “inactive; negative”; the mutagenic call (Test System: AMES SALMONELLA TYPHIMURIUM, Strain/Indicator: TA97, Metabolic Activation: NONE, Method: STANDARD PLATE) was “inactive; negative”; the mutagenic call (Test System: AMES SALMONELLA TYPHIMURIUM, Strain/Indicator: TA97, Metabolic Activation: RAT, LIVER, S-9, PHENOBARBITAL AND BETA-NAPHTHOFLAVONE, Method: PREINCUBATION) is “inactive; negative”; the mutagenic call (Test System: AMES SALMONELLA TYPHIMURIUM, Strain/Indicator: TA97, Metabolic Activation: RAT, LIVER, S-9, PHENOBARBITAL AND BETA-NAPHTHOFLAVONE, Method: STANDARD PLATE) was “inactive; negative”; the mutagenic call under setting [1] was “inactive; negative”; the mutagenic call (Test System: AMES SALMONELLA TYPHIMURIUM, Strain/Indicator: TA98, Metabolic Activation: NONE, Method: STANDARD PLATE) is “inactive; negative”. Besides, the mutagenic call was “inactive; negative” (Test System: AMES SALMONELLA TYPHIMURIUM, Strain/Indicator: TA98, Metabolic Activation: RAT, LIVER, S-9, PHENOBARBITAL AND BETA-NAPHTHOFLAVONE, Method: PREINCUBATION); “inactive; negative” (Test System: AMES SALMONELLA TYPHIMURIUM, Strain/Indicator: TA98, Metabolic Activation: RAT, LIVER, S-9, PHENOBARBITAL AND BETA-NAPHTHOFLAVONE, Method: STANDARD PLATE); “inactive; negative” under setting [2]; “inactive; negative” under setting [7]; “inactive; negative” (Test System: AMES SALMONELLA TYPHIMURIUM, Strain/Indicator: TA100, Metabolic Activation: RAT, LIVER, S-9, PHENOBARBITAL AND BETA-NAPHTHOFLAVONE, Method: PREINCUBATION); “inactive; negative” (Test System: AMES SALMONELLA TYPHIMURIUM, Strain/Indicator: TA100, Metabolic Activation: RAT, LIVER, S-9, PHENOBARBITAL AND BETA-NAPHTHOFLAVONE, Method: STANDARD PLATE). Besides, the mutagenic call was “inactive; negative” under setting [6]; “inactive; negative” (Test System: AMES SALMONELLA TYPHIMURIUM, Strain/Indicator: TA102, Metabolic Activation: NONE, Method: STANDARD PLATE); “inactive; negative” (Test System: AMES SALMONELLA TYPHIMURIUM, Strain/Indicator: TA102, Metabolic Activation: RAT, LIVER, S-9, PHENOBARBITAL AND BETA-NAPHTHOFLAVONE, Method: PREINCUBATION); “inactive; negative” (Test System: AMES SALMONELLA TYPHIMURIUM, Strain/Indicator: TA102, Metabolic Activation: RAT, LIVER, S-9, PHENOBARBITAL AND BETA-NAPHTHOFLAVONE, Method: STANDARD PLATE); “inactive; negative” under setting [3]; “inactive; negative” under setting [8]. For the same compound, the mutagenic call reads like this: (Test System: AMES SALMONELLA TYPHIMURIUM, Strain/Indicator: TA1535, Metabolic Activation: RAT, LIVER, S-9, PHENOBARBITAL AND BETA-NAPHTHOFLAVONE, Method: PREINCUBATION) “inactive; negative”; (Test System: AMES SALMONELLA TYPHIMURIUM, Strain/Indicator: TA1535, Metabolic Activation: RAT, LIVER, S-9, PHENOBARBITAL AND BETA-NAPHTHOFLAVONE, Method: STANDARD PLATE) “inactive; negative”; under setting [4], “inactive; negative”; (Test System: AMES SALMONELLA TYPHIMURIUM, Strain/Indicator: TA1537, Metabolic Activation: NONE, Method: STANDARD PLATE) “inactive; negative”; (Test System: AMES SALMONELLA TYPHIMURIUM, Strain/Indicator: TA1537, Metabolic Activation: RAT, LIVER, S-9, PHENOBARBITAL AND BETA-NAPHTHOFLAVONE, Method: PREINCUBATION) “inactive; negative”; (Test System: AMES SALMONELLA TYPHIMURIUM, Strain/Indicator: TA1537, Metabolic Activation: RAT, LIVER, S-9, PHENOBARBITAL AND BETA-NAPHTHOFLAVONE, Method: STANDARD PLATE) “inactive; negative”. Also, the mutagenic call reads like this: (Test System: AMES SALMONELLA TYPHIMURIUM, Strain/Indicator: TA1538, Metabolic Activation: NONE, Method: PREINCUBATION) “inactive; negative”; (Test System: AMES SALMONELLA TYPHIMURIUM, Strain/Indicator: TA1538, Metabolic Activation: NONE, Method: STANDARD PLATE) “inactive; negative”; (Test System: AMES SALMONELLA TYPHIMURIUM, Strain/Indicator: TA1538, Metabolic Activation: RAT, LIVER, S-9, PHENOBARBITAL AND BETA-NAPHTHOFLAVONE, Method: PREINCUBATION) “inactive; negative”; (Test System: AMES SALMONELLA TYPHIMURIUM, Strain/Indicator: TA1538, Metabolic Activation: RAT, LIVER, S-9, PHENOBARBITAL AND BETA-NAPHTHOFLAVONE, Method: STANDARD PLATE) “inactive; negative”; (Test System: CHINESE HAMSTER V-79, Strain/Indicator: V-79 (HPRT)/6-THIOGUANINE, Metabolic Activation: NONE) “inactive; negative”; (Test System: CHINESE HAMSTER V-79, Strain/Indicator: V-79 (HPRT)/6-THIOGUANINE, Metabolic Activation: RAT, LIVER, S-9, AROCLOR 1254) “inactive; negative”. Besides, the mutagenic call (Test System: UDS RAT HEPATOCYTES, Strain/Indicator: THY INCORP, Metabolic Activation: NONE, Method: AUTORADIOGRAPHY) was “inactive; negative”.
Consider `FC(F)(F)c1ccccc1CN1C2c3ccccc3-c3ccccc3C21` (stereo unspecified), for which the mutagenic call under setting [7] was “active; positive”.
For the compound `COC(=O)[C@@H]1CS[C@@H]2C(Cl)=C(Cl)C(=O)N21`, the mutagenic call under setting [7] was “active; positive”.
